Legend:
[1] = tested on: MRC-5 cells; test: cytotoxicity / antiproliferative assay on dividing and confluent MRC-5 cells (MTT); assay type: cell-based, human; conditions: proliferating vs quiescent cells
Protocol: Evaluation of the antiproliferative activity of fractions using MRC-5 cells in culture was performed using the following procedure: Human embryonic lung (MRC-5) cells were obtained from the American Type Culture Collection. The cells were grown in Eagle's Minimum Essential Medium with Earle's salts (EMEM, JRH Bioscience) supplemented with 10% fetal calf serum (Hyclone), 0.75 mg/mL NaHCO3, 100 units of penicillin per mL, and 100 μg streptomycin per mL (Gibco Labs). As in the AB1 cell assay, cell growth and survival was determined calorimetrically, based upon the uptake and reduction of the tetrazolium salt, MTT, to a blue-colored formazan product by mitochondrial enzymes of living cells. The effect of the fractions, as potential inhibitors at different stages of the cell cycle, was determined by performing the assay using both resting and rapidly dividing cells. […] At the end of the incubation, the medium was aspirated, the cells were rinsed once using PBS, and 1.0 mg/mL of MTT was added to each well. The plates were incubated with MTT for three hours, after which the MTT was aspirated and isopropanol was added to dissolve any formazen crystals that formed. Plates were "read" on an Elisa reader at 570 nm (principal wavelength) and again at 650 wavelength (reference wavelength) to correct for non-specific background absorbance, using a Thermomax Spectrophotometer (Molecular Devices). […]

[2] = tested on: proliferating cells; test: administration of formulations containing Curacins A and B to mice (data not shown); assay type: in vivo; conditions: various direct methods and oral
Source text: In addition, these tests indicate that Curacins A and B can be administered to animal subjects using dosage protocols that are substantially similar to such protocols used with other antimitotics.

[3] = tested on: spleen lymphocytes; test: ex vivo experiments on spleen lymphocytes after administration to mice; conditions: 1-10 mg/kg
[4] = tested on: 60 different human tumor cell lines; conditions: for cytotoxicity: cancer cell lines
Protocol: In these examples, an extract of Lyngbya majuscula containing Curacins A and B was subjected to the drug screening procedure employed by the National Cancer Institute for the screening of drugs having possible anticancer utility.
The screening procedure employed a diverse, disease-oriented panel consisting of 60 different human tumor cell lines organized into seven disease-specific subpanels. The extract was tested over a wide range of concentrations for cytotoxic or growth-inhibitory effects against each cell line comprising the panel. The seven subpanels represented diverse histologies (leukemias, melanomas, and tumors of the lung, colon, kidney, ovary, and brain).
The extract was tested over two days in which the cells were continuously exposed to five log10 -spaced concentrations of the drug starting at 10^-4 μg/mL. The tests produced 60 individual dose-response curves, one for each cell line (i.e., one for each example).
To produce data for the mean-graph format shown in FIG. 7, a concentration of the extract that produced a target level response was calculated for each cell line. Three different response parameters were evaluated. The first response parameter was the "GI50," which is the concentration of the extract that produced an apparent 50% decrease in the number of tumor cells relative to the appropriate control (not exposed to extract) at the end of the incubation period. The second response parameter was the "TGI," which is the concentration at which the number of tumor cells remaining at the end of the incubation period substantially equaled the number of tumor cells existing at the start of the incubation period. The third response parameter was the "LC50," which is the concentration of extract that caused an apparent 50 percent reduction in the number of tumor cells relative to the appropriate control (not exposed to extract) at the start of the incubation period.
In a typical GI50 mean graph (e.g., left graph of FIG. 7), the relative position of the vertical reference line along the horizontal concentration axis is obtained by averaging the negative log10 GI50 values for all the cell lines tested against the extract. Horizontal bars are then plotted for the individual negative log10 GI50 values of each cell line relative to the vertical reference line. […] The length of a bar is proportional to the difference between the log10 GI50 value obtained with the particular cell line and the mean (represented by the vertical reference line).
COMPARE is used to rank the similarity of the mean graph profile of the sample extract or drug to the patterns of all the other compounds in the NCI screening database or a defined subset thereof.

[5] = tested on: brine shrimp; assay type: in vivo; conditions: see Example 1
Protocol: In this Example, various concentrations of the organic extract of Lyngbya majuscula were tested using a brine-shrimp assay. The assay was performed according to the following procedure: 24 hours before performing the assay, brine shrimp eggs were hatched in sea water (made by dissolving INSTANT OCEAN dry concentrate in water according to manufacturer's directions). A volume of the organic extract of Lyngbya majuscula was placed in a 50-mL conical flask (weighed beforehand to obtain the tare weight) and the solvent was evaporated. The flask was re-weighed and the tare weight subtracted to yield the weight of non-volatile residue from the extract. The residue was dissolved with a suitable volume of ethanol to yield a concentration of 0.1 mg residue per μL ethanol. Four vials were prepared, the first containing 50 μL of the ethanol solution, the second containing 10 μL of the ethanol solution plus 40 μL ethanol, the third containing 2.5 μL of the ethanol solution plus 47.5 μL ethanol, and the fourth containing none of the solution and 50 μL ethanol (serving as a negative control). Between 10 and 15 live brine shrimp were placed in each vial and stored for 24 hours, after which the number of live and dead shrimp were tallied for each vial. […]

[6] = tested on: MRC-5 cells; AB1 cells; test: activity of second-stage fractions and of the separated isomers (FIG. 1; test not stated); assay type: cell-based; conditions: Curacin A vs Curacin B
Protocol: Elution in the second stage was performed within a much smaller range of increasingly greater amounts of ethyl acetate in hexane (1 to 5% in 0.5 to 1.0% increments). […] Fractions 5-9 were pooled and, as such, represented about 200 mg total.
Since the Curacin A and Curacin B compounds were […] to CH2 N2, methylation offered a way to purify the compound from the contaminants in the extract. After reaction of the extract with CH2 N2, the extract was subjected to high performance liquid chromatography (HPLC) in an effort to separate the two isomers. […]
Evaluation of the antiproliferative activity of fractions using MRC-5 cells in culture was performed using the following procedure: Human embryonic lung (MRC-5) cells were obtained from the American Type Culture Collection. […] As in the AB1 cell assay, cell growth and survival was determined calorimetrically, based upon the uptake and reduction of the tetrazolium salt, MTT, to a blue-colored formazan product by mitochondrial enzymes of living cells. The effect of the fractions, as potential inhibitors at different stages of the cell cycle, was determined by performing the assay using both resting and rapidly dividing cells. […]

| Structure (SMILES) | activity against proliferating versus quiescent cells [1] | bioavailability [2] | effectiveness in vivo against proliferating cells [2] | effect against spleen lymphocytes [3] | cytotoxicity [4] | effectiveness for reducing a population of representative arthropods (brine shrimp) [5] | activity of Curacin A relative to Curacin B (times more active) [6] | mode of action indicated by COMPARE analysis ([4]; COMPARE data, Tables 1 and 2) | antiproliferative activity against living cells in culture ([4]; living cells in culture) | antimitotic activity ([4]; various tests) |
| --- | --- | --- | --- | --- | --- | --- | --- | --- | --- | --- |
| C=CC[C@@H](CC/C(C)=C/C=C\CC/C=C\[C@@H]1CSC([C@@H]2C[C@@H]2C)=N1)OC [Curacin B] | more active against proliferating cells than against quiescent cells | bioavailable | effective in vivo against proliferating cells | substantial effect against spleen lymphocytes | cytotoxic |  |  |  |  |  |
| C=CC[C@@H](CC/C(C)=C/C=C/CC/C=C\[C@@H]1CSC([C@@H]2C[C@@H]2C)=N1)OC [Curacin A] | more active against proliferating cells than against quiescent cells | bioavailable | effective in vivo against proliferating cells | substantial effect against spleen lymphocytes | cytotoxic | effectiveness | about 10^2 | functions as an antimitotic | substantial antiproliferative activity | substantial antimitotic activity |

Reference: patent US5324739A (priority 1993, dated 1994)
